Experimental data: US20100152230A1, “HYDROXY SUBSTITUTED 1H-IMIDAZOPYRIDINES AND METHODS” (Pfizer Inc., priority 2005, published 2010)
Structures can show the parent of a compound that is named as a salt.

Compound	melting point
CCCCOc1cc2c(nc(O)n2Cc2ccccc2)c(N)n1 [Example 23, 4-amino-1-benzyl-6-butoxy-1H-imidazo[4,5-c]pyridin-2-ol]	205 to 208 °C
CCCCCc1cc2c(nc(O)n2Cc2cccnc2)c(N)n1 [Example 5, 4-Amino-6-pentyl-1-(pyridin-3-ylmethyl)-1H-imidazo[4,5-c]pyridin-2-ol]	243 to 245 °C
CCOCCc1cc2c(nc(O)n2CCCCS(C)(=O)=O)c(N)n1 [Example 18, 4-Amino-6-(2-ethoxyethyl)-1-[4-(methylsulfonyl)butyl]-1H-imidazo[4,5-c]pyridin-2-ol]	203 to 206 °C
CCCCCc1cc2c(nc(O)n2[C@H](C)c2ccccc2)c(N)n1 [Example 22, 4-Amino-6-pentyl-1-[(1R)-1-phenylethyl]-1H-imidazo[4,5-c]pyridin-2-ol]	147.1 to 148 °C
CCCCCc1cc2c(nc(O)n2CCCNS(C)(=O)=O)c(N)n1 [Example 8, N-[3-(4-Amino-2-hydroxy-6-pentyl-1H-imidazo[4,5-c]pyridin-1-yl)propyl]methanesulfonamide]	174 to 176 °C
CCCCCc1cc2c(nc(O)n2CCCNC(C)=O)c(N)n1 [Example 10, N-[3-(4-Amino-2-hydroxy-6-pentyl-1H-imidazo[4,5-c]pyridin-1-yl)propyl]acetamide]	189 to 191 °C
CCCCCc1cc2c(nc(O)n2CC(C)(C)O)c(N)n1 [Example 3, 4-Amino-1-(2-hydroxy-2-methylpropyl)-6-pentyl-1H-imidazo[4,5-c]pyridin-2-ol]	240 to 243 °C
CCCCCc1cc2c(nc(O)n2CCCCS(C)(=O)=O)c(N)n1 [Example 16, 4-Amino-1-[4-(methylsulfonyl)butyl]-6-pentyl-1H-imidazo[4,5-c]pyridin-2-ol]	188 to 189 °C
CCCCCc1cc2c(nc(O)n2CC2CCN(S(C)(=O)=O)CC2)c(N)n1 [Example 12, 4-Amino-1-{[1-(methylsulfonyl)piperidin-4-yl]methyl}-6-pentyl-1H-imidazo[4,5-c]pyridin-2-ol]	228 to 231 °C
CCCCCc1cc2c(nc(O)n2CC2CCN(C(=O)C3CC3)CC2)c(N)n1 [Example 15, 4-Amino-1-{[1-(cyclopropylcarbonyl)piperidin-4-yl]methyl}-6-pentyl-1H-imidazo[4,5-c]pyridin-2-ol]	205 to 207 °C

The next lines start with the values.

melting point	Compound
> 250 °C	CCCCCc1cc2c(nc(O)n2CC2CCOCC2)c(N)n1 [Example 4, 4-Amino-6-pentyl-1-(tetrahydro-2H-pyran-4-ylmethyl)-1H-imidazo[4,5-c]pyridin-2-ol]
177 to 178 °C	CCCCCc1cc2c(nc(O)n2CCOCCCc2nccs2)c(N)n1 [Example 7]
223 to 225 °C	CCCCCc1cc2c(nc(O)n2CCS(C)(=O)=O)c(N)n1 [Example 17, 4-Amino-1-[2-(methylsulfonyl)ethyl]-6-pentyl-1H-imidazo[4,5-c]pyridin-2-ol]
222 to 225 °C	CCCCCc1cc2c(nc(O)n2CC2CCN(S(=O)(=O)CC)CC2)c(N)n1 [Example 14, 4-Amino-1-{[1-(ethylsulfonyl)piperidin-4-yl]methyl}-6-pentyl-1H-imidazo[4,5-c]pyridin-2-ol]
228 to 231 °C	CCCCCc1cc2c(nc(O)n2CC2CCN(C(C)=O)CC2)c(N)n1 [Example 13, 1-[(1-Acetylpiperidin-4-yl)methyl]-4-amino-6-pentyl-1H-imidazo[4,5-c]pyridin-2-ol]
260 to 262 °C	CCCCCc1cc2c(nc(O)n2Cc2ccccc2)c(N)n1 (as salt: salt) [Example 1, 4-Amino-1-benzyl-6-pentyl-1H-imidazo[4,5-c]pyridin-2-ol]
> 300 °C	Cc1cc(Cn2c(O)nc3c(N)nc(C)c(C)c32)on1 [Example 20, 4-Amino-6,7-dimethyl-1-[(3-methylisoxazol-5-yl)methyl]-1H-imidazo[4,5-c]pyridin-2-ol]
238 to 240 °C	CCCCCc1cc2c(nc(O)n2CCc2ccccc2)c(N)n1 [Example 2, 4-Amino-6-pentyl-1-(2-phenylethyl)-1H-imidazo[4,5-c]pyridin-2-ol]
250 °C	Cc1nc(N)c2nc(O)n(Cc3cc(-c4ccc(F)cc4)no3)c2c1C [Example 19, 4-Amino-1-{[3-(4-fluorophenyl)isoxazol-5-yl]methyl}-6,7-dimethyl-1H-imidazo[4,5-c]pyridin-2-ol]
146.7 to 147.7 °C	CCCCCc1cc2c(nc(O)n2[C@@H](C)c2ccccc2)c(N)n1 [Example 21, 4-Amino-6-pentyl-1-[(1S)-1-phenylethyl]-1H-imidazo[4,5-c]pyridin-2-ol]
246 to 249 °C	CCCCCc1cc2c(nc(O)n2CC2CCNCC2)c(N)n1 [Example 11, 4-Amino-6-pentyl-1-(piperidin-4-ylmethyl)-1H-imidazo[4,5-c]pyridin-2-ol]
